Measured values as given in patent publication US8802866B2, “Pyridinylimidazolone derivatives for the inhibition of PI3 kinases” (Merck Patent GmbH, priority 2009, dated 2014).

Assays:
DNA-PK protein complex = DNA-PK protein complex (Homo sapiens, UniProt P78527); assay: Biochemical DNA-PK assay (FlashPlate)
Description: The kinase assay is carried out in […] microtitre FlashPlates®, coated with streptavidin. […] The reaction is stopped by addition of 50 μl/well of 200 mM EDTA. After incubation for 30 minutes, the liquids are removed at room temperature. Each well is washed three times with 100 μl of 0.9% NaCl solution. Non-specific reaction (blank) is determined using a proprietary kinase inhibitor (10 μM). The radioactivity is measured by means of a Topcount. […] Todd Eary, J. G. Schiro, H. Huang, L. E. Burgess, E. A. Kesicki, and J. Halbrook.

PI3Kbeta = PI3Kbeta (Homo sapiens, UniProt P42338); assay: Biochemical PI3Kbeta assay (neomycin SPA, lipid phosphorylation); conditions: human recombinant GST-PI3K
Description: (§1) The efficacy of the compounds according to the invention in the inhibition of PI3K-induced lipid phosphorylation can be investigated in the following binding assay. The assay combines scintillation proximity assay (SPA) technology (Amersham) with the ability of neomycin (a polycationic antibiotic) to bind phospholipids with high affinity and specificity. […] The coating of SPA beads with neomycin allows the detection of phosphorylated lipid substrates after incubation with recombinant PI3K and radioactive ATP in the same well by trapping the radioactive phospholipids by the SPA beads owing to their specific binding to neomycin. […] After incubation at room temperature for 120 minutes with gentle stirring, the reaction was stopped by addition of 200 μl of a solution comprising 250 μg of neomycin-coated PVT-SPA beads, ATP 60 mM and EDTA 6.2 mM in PBS. The assay is incubated at room temperature for a further 60 minutes with gentle stirring in order to enable binding of the phospholipids to the neomycin-SPA beads. After precipitation of the neomycin-coated PVT-SPA beads over 5 minutes at 1500×g, radioactive Ptdlns(3)P is quantified by scintillation counting in a Wallac Micro-Beta™ plate counter.

[1] = biological target: recombinant PI3Kalpha (shortened form of the catalytic subunit) (Homo sapiens, UniProt P42336); assay: BIACORE PI3K binding assay (SPR); conditions: 25° C.
Description: SPR measurements of the binding affinities and binding kinetics on PI3Kalpha surfaces with the aid of Biacore systems. The experiments are carried out on a Biacore S51 “Compound Characterization” or a Biacore T100 instrument utilising the default application “Kinetics/Affinity” Experimental conditions: recombinant PI3Kalpha (shortened form of the catalytic subunit, missing N terminal from about 100 to 150 aa, Mw about 110 kDa, prepared by Proteros Biostructures GmbH) is immobilised on Biacore CM5 chips (25° C., flow rate: 10 μl/min, utilising amine coupling at pH 7.40—Biacore Standard protocol). PI3Kalpha is employed in concentrations between 10 and 25 μg/ml. Depending on the duration of the injection time, immobilisation levels from 1700 to 11000 RU are achieved. The substances to be measured are added in the form of a titration series. The substance concentration is doubled for each subsequent injection. 10 different substance concentrations which cover a 500-fold dilution range are usually injected. […] Kinetic titration experiments are carried out at 25° C. with a flow rate of 30 μl/min, the sample contact time is 180 s, and the dissociation time is 240 s in a running buffer (20 mM HEPES pH7.40, 150 mM NaCl, 5 mM MgCl2, 1 mM DTT, 0.1 mM EDTA, 0.05% Tween 20) comprising 2% of DMSO. Buffer injections (as double references) identical to the sample injections are carried out in each case at the beginning of a continuous series. Solvent correction cycles (eight correction points, 1.4%-2.8% DMSO) are carried out at equal intervals. In order to condition the surface, at least five start-up cycles (buffer injections) are carried out. Data points are collected with a sample rate of 10 Hz. Surface regeneration is carried out after each measurement cycle, apart from after the solvent correction runs. For this purpose, two times 100 mM NaHCO3 pH 8.60 are injected for 30 sec. Data sets are processed and analysed using the Biacore S51 Evaluation software, version 1.2.1, or Biacore T100 Evaluation, version 2.0. Solvent-corrected and double-referenced association and dissociation phase data are adapted to a simple 1:1 interaction model with mass transport limitations.

PI3Kalpha = PI3Kalpha (Homo sapiens, UniProt P42336); assay: Biochemical PI3Kalpha assay (neomycin SPA, lipid phosphorylation); conditions: human recombinant GST-PI3K
Description: as §1

[2] = test system: PI3K-dependent phosphorylation of PKB at Serin 473 in PC3 cells; assay: Cellular PI3K assay (P-S473-PKB Luminex assay in PC3 cells); assay type: cell-based; conditions: Homo sapiens, PC-3, 0.5 h; PC3 cells, 30 min, serum-free, P-S473-PKB; read-out: IC50 (cell)
Description: The cellular assay for determination of the P-S473-PKB level is carried out as a Luminex assay in 96-well format in PC3 cells.
PC3 cells are sown out with 20,000 cells per well in 100 μl medium (45% […]/45% Ham's F12/10% FCS) and incubated on the following day for 30 min with a serial dilution of the test substance (7 concentrations) under serum-free conditions. The cells are subsequently lysed using 90 μl of lysis buffer (20 mM Tris/HCl pH 8.0, 150 mM NaCl, 1% NP40, 10% glycerol, 1% phosphatase inhibitor I, 1% phosphatase inhibitor II, 0.1% protease inhibitor cocktail III, 0.01% benzonase) per well, and the lysates are separated off from insoluble cell constituents by means of centrifugation through a 96-well filter plate (0.65 μm). The lysates are incubated overnight at 4° C. with shaking with Luminex beads to which an anti-total PKB antibody is coupled. The detection is carried out on the following day by addition of a P-S473-PKB antibody and a species-specific PE-labelled secondary antibody. The detection of P-S473-PKB is carried out by measurement in a Luminex100 instrument by determination of 100 events per cavity in a measurement time of 60 sec.

Chain of PI3Kbeta (P42338 whole entry): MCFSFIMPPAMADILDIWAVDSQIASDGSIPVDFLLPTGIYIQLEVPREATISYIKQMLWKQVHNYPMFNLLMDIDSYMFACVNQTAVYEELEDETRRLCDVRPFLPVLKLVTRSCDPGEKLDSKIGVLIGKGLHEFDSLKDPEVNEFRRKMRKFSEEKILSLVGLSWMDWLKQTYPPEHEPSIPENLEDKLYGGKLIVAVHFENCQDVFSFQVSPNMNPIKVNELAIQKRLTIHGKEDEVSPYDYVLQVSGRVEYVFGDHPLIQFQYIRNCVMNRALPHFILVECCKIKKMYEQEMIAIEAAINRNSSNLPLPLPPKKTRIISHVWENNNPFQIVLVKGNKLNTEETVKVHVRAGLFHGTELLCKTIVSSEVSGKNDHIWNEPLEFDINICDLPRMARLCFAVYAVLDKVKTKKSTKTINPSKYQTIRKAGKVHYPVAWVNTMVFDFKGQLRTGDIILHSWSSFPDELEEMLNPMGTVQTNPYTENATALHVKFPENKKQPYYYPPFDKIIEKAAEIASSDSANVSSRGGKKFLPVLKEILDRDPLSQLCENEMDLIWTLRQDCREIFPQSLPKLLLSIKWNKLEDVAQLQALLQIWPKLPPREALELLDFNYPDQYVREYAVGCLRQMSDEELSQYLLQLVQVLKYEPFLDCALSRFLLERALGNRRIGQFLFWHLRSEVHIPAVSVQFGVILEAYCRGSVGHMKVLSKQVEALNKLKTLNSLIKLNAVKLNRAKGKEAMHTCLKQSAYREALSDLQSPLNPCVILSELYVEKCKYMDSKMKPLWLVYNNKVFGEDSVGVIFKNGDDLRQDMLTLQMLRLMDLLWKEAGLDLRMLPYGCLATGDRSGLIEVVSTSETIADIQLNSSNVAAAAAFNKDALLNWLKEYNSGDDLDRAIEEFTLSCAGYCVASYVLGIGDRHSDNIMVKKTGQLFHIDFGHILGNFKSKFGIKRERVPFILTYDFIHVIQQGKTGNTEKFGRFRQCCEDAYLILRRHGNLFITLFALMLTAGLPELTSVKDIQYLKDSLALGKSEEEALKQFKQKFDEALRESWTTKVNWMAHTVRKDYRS
Chain of PI3Kbeta (P27986 whole entry partner): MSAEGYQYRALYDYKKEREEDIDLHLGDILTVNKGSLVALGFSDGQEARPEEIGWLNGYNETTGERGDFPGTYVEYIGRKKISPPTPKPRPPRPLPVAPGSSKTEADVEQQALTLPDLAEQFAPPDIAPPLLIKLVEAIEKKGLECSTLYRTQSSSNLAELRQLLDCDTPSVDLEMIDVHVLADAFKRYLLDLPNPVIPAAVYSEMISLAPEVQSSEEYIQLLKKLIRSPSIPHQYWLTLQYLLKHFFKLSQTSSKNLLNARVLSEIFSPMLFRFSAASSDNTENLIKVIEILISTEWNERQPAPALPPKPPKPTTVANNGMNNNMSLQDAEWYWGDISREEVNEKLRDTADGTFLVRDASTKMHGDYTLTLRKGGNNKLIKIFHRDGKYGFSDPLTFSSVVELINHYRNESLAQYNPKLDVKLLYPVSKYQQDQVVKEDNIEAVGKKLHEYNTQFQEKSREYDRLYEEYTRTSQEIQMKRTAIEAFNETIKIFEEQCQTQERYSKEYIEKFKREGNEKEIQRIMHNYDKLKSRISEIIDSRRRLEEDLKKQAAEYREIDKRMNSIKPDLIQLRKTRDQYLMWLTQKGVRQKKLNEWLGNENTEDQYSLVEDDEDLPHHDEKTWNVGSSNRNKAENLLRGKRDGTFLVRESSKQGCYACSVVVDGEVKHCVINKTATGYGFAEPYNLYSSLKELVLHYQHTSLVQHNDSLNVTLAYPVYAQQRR
Chain of recombinant PI3Kalpha (shortened form of the catalytic subunit) (P42336 151-1068 limits assumed): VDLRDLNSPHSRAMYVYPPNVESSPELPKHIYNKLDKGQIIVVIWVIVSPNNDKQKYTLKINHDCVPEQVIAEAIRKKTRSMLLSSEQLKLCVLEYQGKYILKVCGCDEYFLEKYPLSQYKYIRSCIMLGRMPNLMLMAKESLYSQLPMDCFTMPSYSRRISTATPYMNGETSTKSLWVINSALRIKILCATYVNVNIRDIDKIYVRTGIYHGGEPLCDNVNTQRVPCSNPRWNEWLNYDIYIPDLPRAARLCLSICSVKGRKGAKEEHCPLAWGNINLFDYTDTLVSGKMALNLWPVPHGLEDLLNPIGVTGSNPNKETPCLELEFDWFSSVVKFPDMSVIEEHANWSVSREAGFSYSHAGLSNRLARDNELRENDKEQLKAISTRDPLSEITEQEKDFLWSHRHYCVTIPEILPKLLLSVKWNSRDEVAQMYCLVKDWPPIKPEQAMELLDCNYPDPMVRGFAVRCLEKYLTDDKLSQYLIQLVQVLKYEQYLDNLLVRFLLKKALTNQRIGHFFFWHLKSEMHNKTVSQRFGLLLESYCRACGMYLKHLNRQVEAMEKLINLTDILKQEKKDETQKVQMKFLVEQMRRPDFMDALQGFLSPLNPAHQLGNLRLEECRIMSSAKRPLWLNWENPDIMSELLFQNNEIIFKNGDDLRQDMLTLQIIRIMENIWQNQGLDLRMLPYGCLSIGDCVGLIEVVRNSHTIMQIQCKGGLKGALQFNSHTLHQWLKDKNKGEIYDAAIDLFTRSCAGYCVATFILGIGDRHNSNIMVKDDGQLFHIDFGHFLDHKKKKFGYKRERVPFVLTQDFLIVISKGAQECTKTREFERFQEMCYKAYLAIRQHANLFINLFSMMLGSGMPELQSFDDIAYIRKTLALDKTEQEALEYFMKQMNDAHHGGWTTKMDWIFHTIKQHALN
Chain of PI3Kalpha (P42336 whole entry): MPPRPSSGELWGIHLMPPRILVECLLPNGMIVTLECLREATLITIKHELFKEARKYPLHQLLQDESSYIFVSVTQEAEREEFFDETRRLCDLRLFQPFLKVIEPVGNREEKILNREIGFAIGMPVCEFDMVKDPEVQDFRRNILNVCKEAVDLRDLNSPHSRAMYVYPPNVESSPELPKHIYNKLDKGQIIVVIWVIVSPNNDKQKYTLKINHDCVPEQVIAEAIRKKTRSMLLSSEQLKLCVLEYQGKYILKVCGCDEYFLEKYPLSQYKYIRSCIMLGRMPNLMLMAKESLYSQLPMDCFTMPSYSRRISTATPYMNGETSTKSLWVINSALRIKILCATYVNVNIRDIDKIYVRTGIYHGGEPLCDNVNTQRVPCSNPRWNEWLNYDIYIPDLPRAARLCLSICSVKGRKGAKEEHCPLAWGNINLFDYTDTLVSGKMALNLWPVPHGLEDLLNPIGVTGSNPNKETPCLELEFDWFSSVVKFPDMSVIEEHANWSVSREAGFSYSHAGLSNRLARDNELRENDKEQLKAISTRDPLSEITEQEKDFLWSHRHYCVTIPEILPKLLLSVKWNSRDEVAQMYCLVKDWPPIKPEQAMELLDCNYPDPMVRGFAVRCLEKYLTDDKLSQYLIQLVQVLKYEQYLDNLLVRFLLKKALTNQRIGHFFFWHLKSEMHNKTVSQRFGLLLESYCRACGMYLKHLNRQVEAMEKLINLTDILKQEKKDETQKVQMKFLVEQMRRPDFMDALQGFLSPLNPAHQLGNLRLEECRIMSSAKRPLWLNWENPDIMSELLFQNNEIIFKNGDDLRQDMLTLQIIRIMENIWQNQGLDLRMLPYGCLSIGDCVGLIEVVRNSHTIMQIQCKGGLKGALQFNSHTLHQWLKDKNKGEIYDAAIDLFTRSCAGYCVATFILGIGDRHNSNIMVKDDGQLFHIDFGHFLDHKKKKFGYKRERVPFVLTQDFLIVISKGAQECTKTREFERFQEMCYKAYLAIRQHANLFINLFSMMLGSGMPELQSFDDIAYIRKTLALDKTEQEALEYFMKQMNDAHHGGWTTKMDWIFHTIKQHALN
Chain of PI3Kalpha (P27986 whole entry partner): as the sequence (P27986 whole entry partner) above

IC50 (DNA-PK protein complex) [nM]	IC50 (PI3Kbeta) [nM]	Kd [1] [nM]	IC50 (PI3Kalpha) [nM]	IC50 [2] [nM]	SMILES
0.1 to 100	100 to 10000	100 to 10000	100 to 10000	100 to 10000	Cn1cc(-c2cc(-c3cnc4[nH]ccc4c3)ccn2)n(-c2ccccc2C(F)(F)F)c1=O [Example A67, 1-Methyl-4-[4-(1H-pyrrolo[2,3-b]pyridin-5-yl)pyridin-2-yl]-3-(2-trifluoromethylphenyl)-1,3-dihydroimidazol-2-one]
> 10000	> 10000	100 to 10000	> 10000	> 10000	Cn1cc(-c2cc(-c3cnc4[nH]ccc4c3)ccn2)n(-c2ccccc2C#N)c1=O [Example A69, 2-{3-Methyl-2-oxo-5-[4-(1H-pyrrolo[2,3-b]pyridin-5-yl)pyridin-2-yl]-2,3-dihydroimidazol-1-yl}benzonitrile]
0.1 to 100	100 to 10000	0.1 to 100	100 to 10000	0.1 to 100	Cn1cc(-c2cc(-c3cnc4[nH]ccc4c3)ccn2)n(-c2ccc(N3CCOCC3)c(C(F)(F)F)c2)c1=O [Example A71, 1-Methyl-3-(4-morpholin-4-yl-3-trifluoromethylphenyl)-4-[4-(1H-pyrrolo[2,3-b]-pyridin-5-yl)pyridin-2-yl]-1,3-dihydroimidazol-2-one]
100 to 10000	100 to 10000	0.1 to 100	100 to 10000	100 to 10000	CN1CCN(c2ccc(-n3c(-c4cc(-c5cnc6[nH]ccc6c5)ccn4)cn(C)c3=O)cc2C#N)CC1 [Example A83, 5-{3-Methyl-2-oxo-5-[4-(1H-pyrrolo[2,3-b]pyridin-5-yl)pyridin-2-yl]-2,3-dihydroimidazol-1-yl}-2-(4-methylpiperazin-1-yl)benzonitrile]
0.1 to 100	100 to 10000	0.1 to 100	0.1 to 100	100 to 10000	Cn1cc(-c2cc(-c3cnc(N)c(-c4ccccc4)c3)ccn2)n(-c2ccc(C(C)(C)C#N)cc2)c1=O [Example A84, 2-{4-[5-(6-Amino-5-phenyl-[3,4′]bipyridinyl-2′-yl)-3-methyl-2-oxo-2,3-dihydroimidazol-1-yl]phenyl}-2-methylpropionitrile]
100 to 10000	100 to 10000	100 to 10000	100 to 10000	100 to 10000	Cc1cc2cc(-c3ccnc(-c4cn(C)c(=O)n4-c4ccc(N5CCN(C)CC5)c(C(F)(F)F)c4)c3)cnc2[nH]1 [Example A88, 1-Methyl-3-[4-(4-methylpiperazin-1-yl)-3-trifluoromethylphenyl]-4-[4-(2-methyl-1H-pyrrolo[2,3-b]pyridin-5-yl)pyridin-2-yl]-1,3-dihydroimidazol-2-one]
100 to 10000	> 10000	100 to 10000	100 to 10000	100 to 10000	CC(=O)N1CCN(c2ccc(-n3c(-c4cc(-c5ccc6[nH]ccc6c5)ccn4)cn(C)c3=O)cc2C(F)(F)F)CC1 [Example A89, 3-[4-(4-Acetylpiperazin-1-yl)-3-trifluoromethylphenyl]-4-[4-(1H-indol-5-yl)pyridin-2-yl]-1-methyl-1,3-dihydroimidazol-2-one]
0.1 to 100	100 to 10000	0.1 to 100	100 to 10000	0.1 to 100	Cn1cc(-c2cc(-c3cnc4[nH]ccc4c3)ccn2)n(-c2cccc(Oc3ccccc3)c2)c1=O [Example A90, 1-Methyl-3-(3-phenoxyphenyl)-4-[4-(1H-pyrrolo[2,3-b]pyridin-5-yl)pyridin-2-yl]-1,3-dihydroimidazol-2-one]
100 to 10000	100 to 10000	100 to 10000	100 to 10000	100 to 10000	Cn1cc(-c2cc(-c3cnc(N)c(C(F)(F)F)c3)ccn2)n(-c2ccc(F)c(C(F)(F)F)c2)c1=O [Example A97, 4-(6-Amino-5-trifluoromethyl-[3,4′]bipyridinyl-2′-yl)-3-(4-fluoro-3-trifluoromethyl-phenyl)-1-methyl-1,3-dihydroimidazol-2-one]
100 to 10000	100 to 10000	100 to 10000	100 to 10000	> 10000	CN1CCN(c2cc(C#N)cc(-n3c(-c4cc(-c5cnc6[nH]ccc6c5)ccn4)cn(C)c3=O)c2)CC1 [Example A98, 3-{3-Methyl-2-oxo-5-[4-(1H-pyrrolo[2,3-b]pyridin-5-yl)pyridin-2-yl]-2,3-dihydro-imidazol-1-yl}-5-(4-methylpiperazin-1-yl)benzonitrile]
0.1 to 100	100 to 10000	100 to 10000	100 to 10000	100 to 10000	CCc1cc(-c2c[nH]c3ncc(-c4ccnc(-c5cn(C)c(=O)n5-c5ccc(C(C)(C)C#N)cc5)c4)cc23)nc(N)n1 [Example A99, 2-[4-(5-{4-[3-(2-Amino-6-ethylpyrimidin-4-yl)-1H-pyrrolo[2,3-b]pyridin-5-yl]-pyridin-2-yl}-3-methyl-2-oxo-2,3-dihydroimidazol-1-yl)phenyl]-2-methylpropionitrile]
0.1 to 100	> 10000	100 to 10000	> 10000	100 to 10000	COc1ccc(Cn2c(-c3cc(-c4cnc5[nH]ccc5c4)ccn3)cn(C)c2=O)cc1 [Example A108, 3-(4-Methoxybenzyl)-1-methyl-4-[4-(1H-pyrrolo[2,3-b]pyridin-5-yl)pyridin-2-yl]-1,3-dihydroimidazol-2-one]
0.1 to 100	100 to 10000	100 to 10000	100 to 10000	100 to 10000	COc1ccc(Cn2c(-c3cc(-c4cnc5[nH]ncc5c4)ccn3)cn(C)c2=O)cc1 [Example A109, 3-(4-Methoxybenzyl)-1-methyl-4-[4-(1H-pyrazolo[3,4-b]pyridin-5-yl)pyridin-2-yl]-1,3-dihydroimidazol-2-one]
100 to 10000	100 to 10000	100 to 10000	100 to 10000	100 to 10000	COc1ccc(Cn2c(-c3cc(-c4cnc(N)c(C(F)(F)F)c4)ccn3)cn(C)c2=O)cc1 [Example A110, 4-(6-Amino-5-trifluoromethyl-[3,4′]bipyridinyl-2′-yl)-3-(4-methoxybenzyl)-1-methyl-1,3-dihydroimidazol-2-one]
